Data on two molecules can be found in patent US9931355B2, “Combination of compounds derived from gallic acid for the treatment of cancer” (PONTIFICLA UNIVERSIDAD JAVERIANA, priority 2012, dated 2018).

Converted amounts (≈) assume the structure as drawn.

Holding throughout (assay type): cell-based
One test has as its system Fibroblasts. Nature of the test: MTT cytotoxicity assay on fibroblasts. Conditions: Fibroblast, read-out: 50% inhibitory concentration. A general note: Tetrazolium dyes change colour on reduction, which living cells bring about.
Test [1] deals with 4T1 (murine mammary cancer). Nature of the test: MTT cytotoxicity assay on 4T1 cells. Conditions: Mus musculus, 48 hours, read-out: 50% inhibitory concentration. The protocol:
(§1) The human cell lines used were K562 (human erythroleukemia) MCF7 (human breast cancer) and A375 (human melanoma). The murine cell lines used were Mel Rel (murine melanoma) and 4T1 (murine mammary cancer). […] The cell line 4T1 was also maintained with 1 mM of sodium pyruvate (Eurobio, Toulouse, FR). For the assays on normal cells, human mononucleocytes from the venous peripheral blood of healthy donors (PBMC) were obtained, and were separated by centrifugation using a Ficoll-Hypaque density gradient (GE Healthcare Bio-Sciences AB, Bjorkgatan, Uppsala, Sweden). The cytotoxic effect of the combination of the invention on tumor cells and normal cells was evaluated by direct microscopic observation and via assays with MTT (Sigma, Saint Louis Mo., USA). […] The formazan crystals were dissolved with dimethyl sulfoxide (DMSO) and the optical density was measured at 540 nm in a Multiskan MCC/340 machine (Labsystems, Thermo Fisher Scientific, Waltham, USA). The cytotoxic effect of FA-CS was evaluated with MTT on various tumoral cell lines. The […] value on the various cell lines was calculated using the Minitab software. […]

The test system of test [2] is K562 (human erythroleukemia). Nature of the test: MTT cytotoxicity assay on K562 cells. The settings on record: 48 hours, read-out: 50% inhibitory concentration. The protocol: as §1
A further test concerns A375 (human melanoma). As to the kind of experiment: MTT cytotoxicity assay on A375 cells. Conditions: A-375, 48 hours, read-out: 50% inhibitory concentration. The protocol: The human cell lines used were K562 (human erythroleukemia) MCF7 (human breast cancer) and A375 (human melanoma). The murine cell lines used were Mel Rel (murine melanoma) and 4T1 (murine mammary cancer). These cells were maintained in RPMI 1640 medium supplemented with 10% fetal calf serum, 2 mM of L-glutamine, 100 U of penicillin, 100 μg/ml of streptomycin and 0.01 M of HEPES (Eurobio, Toulouse, FR) at 37° C. with 5% CO2 under a humid atmosphere. The cell line 4T1 was also maintained with 1 mM of sodium pyruvate (Eurobio, Toulouse, FR). For the assays on normal cells, human mononucleocytes from the venous peripheral blood of healthy donors (PBMC) were obtained, and were separated by centrifugation using a Ficoll-Hypaque density gradient (GE Healthcare Bio-Sciences AB, Bjorkgatan, Uppsala, Sweden).
The cytotoxic effect of the combination of the invention on tumor cells and normal cells was evaluated by direct microscopic observation and via assays with MTT (Sigma, Saint Louis Mo., USA). […] The formazan crystals were dissolved with dimethyl sulfoxide (DMSO) and the optical density was measured at 540 nm in a Multiskan MCC/340 machine (Labsystems, Thermo Fisher Scientific, Waltham, USA).
The cytotoxic effect of FA-CS was evaluated with MTT on various tumoral cell lines. The […] value on the various cell lines was calculated using the Minitab software. […]

Test [3] has as its system MCF7 (human breast cancer). Nature of the test: MTT cytotoxicity assay on MCF7 cells. Conditions: 48 hours, read-out: 50% inhibitory concentration. As to the method: as §1

In the case of `COc1cccc2c1C(=O)c1c(O)c3c(c(O)c1C2=O)C[C@@](O)(C(=O)CO)C[C@@H]3O[C@H]1C[C@H](N)[C@H](O)[C@H](C)O1` [Doxorubicin], the IC50 with Fibroblasts came to 0.4 ± 0.1 µg/mL (≈ 0.736 µM); in test [1], 0.5 ± 0.1 µg/mL; in test [2] it was 0.2 ± 0.1 µg/mL; in the test on A375 (human melanoma), 0.02 ± 0.1 µg/mL.
On to `O=C(O)c1cc(O)c(O)c(O)c1` [Gallic acid], for which the values for the IC50 in test [1], in test [2] and in test [3] were 96.2 µg/mL, 18.2 ± 0.1 µg/mL and 4.07 ± 0.04 µg/mL, respectively.
